From patent US12209102B2, “Heterocyclic compounds and uses thereof” (Kumquat Biosciences Inc., priority 2022, dated 2025) come the findings set out here.

One test deals with T1, K-Ras G12S (Homo sapiens, UniProt P01116, G12S).
T1 construct: made in house; host or cells: E. coli BL21 (DE3)
Briefly: HTRF resonance energy transfer assay, K-Ras G12S / SOS1 interaction. Format: biochemical. To be noted: HTRF assay of Example 5; read-out: IC50 against K-Ras G12S. An outline of the steps: (§1)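 Buffer about 5 mM HEPES pH 7.4 with ~150 mM NaCl, ~1 mM DTT, 0.05% BSA, 0.0025% (v/v) Igepal. Protein constructs used at molarity matching the IC50 range studied (e.g. ~500 nM). FRET between tagged K-Ras and hSOS1 measured after short incubation.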
A general note: Time-resolved FRET reads energy transfer from a long-lived donor to a nearby acceptor.

A further test has as its target T2, K-Ras G12D (Homo sapiens, UniProt P01116, G12D).
T2 construct: made in house; host or cells: E. coli BL21 (DE3)
Briefly: HTRF resonance energy transfer assay, K-Ras G12D / SOS1 interaction. Format: biochemical. The conditions noted are these: HTRF assay of Example 5; read-out: IC50 against K-Ras G12D. The gist of the method:
as §1

The test system of the next test is SW620 cells. Briefly: Ras cellular assay, growth of cells with K-Ras G12V mutation (CellTiter-Glo). Type of test: cell-based. To be noted: Homo sapiens, SW-620; cell growth, Example 9, G12V mutation; read-out: IC50 against SW620 cells. The gist of the method:
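IC50 values came from a four-parameter fit of CellTiter-Glo viability, read roughly 6 days after dosing with e.g. a 10-point threefold dilution series. G12V-mutant SW620 cells (e.g. 800 per well) had been plated the previous day in RPMI-1640/10% heat-inactivated FBS, on tissue culture-treated or ultra-low attachment plates.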
(In general: In ATP-based viability assays light output follows the ATP content of the culture.)

For a further test, the system named is A549 cells. Briefly: Ras cellular assay, growth of cells with K-Ras G12S mutation (CellTiter-Glo). Format: cell-based. To be noted: Homo sapiens, cell growth, Example 9, G12S mutation, read-out: IC50 against A549 cells. An outline of the steps:
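Growth inhibition IC50 values come from four-parameter fits of CellTiter-Glo luminescence, read about 6 days after compound addition. G12S-mutant A549 cells (e.g. 800/well, RPMI-1640 + 10% heat-inactivated FBS) were plated in tissue-culture-treated or ultra-low-attachment 384-well format. Dosing began the following day with serial dilutions, e.g. 10 points, 3-fold.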

The target in another test is T3, K-Ras WT (Homo sapiens, UniProt P01116).
T3 construct: made in house; host or cells: E. coli BL21 (DE3)
T3 sequence (P01116 1-188 isoform P01116-2): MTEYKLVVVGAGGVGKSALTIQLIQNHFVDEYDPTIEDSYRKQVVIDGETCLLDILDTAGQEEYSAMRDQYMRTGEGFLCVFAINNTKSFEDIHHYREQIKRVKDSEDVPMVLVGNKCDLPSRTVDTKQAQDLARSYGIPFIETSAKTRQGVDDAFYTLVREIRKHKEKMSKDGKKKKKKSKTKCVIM
Briefly: HTRF resonance energy transfer assay, K-Ras WT / SOS1 interaction. The conditions noted are these: HTRF assay of Example 5; read-out: IC50 against K-Ras WT. Type of test: biochemical. An outline of the steps: as §1

In a further test the target is T4, K-Ras G12V (Homo sapiens, UniProt P01116, G12V).
T4 construct: made in house; host or cells: E. coli BL21 (DE3)
T4 sequence (P01116 1-188 isoform P01116-2 G12V): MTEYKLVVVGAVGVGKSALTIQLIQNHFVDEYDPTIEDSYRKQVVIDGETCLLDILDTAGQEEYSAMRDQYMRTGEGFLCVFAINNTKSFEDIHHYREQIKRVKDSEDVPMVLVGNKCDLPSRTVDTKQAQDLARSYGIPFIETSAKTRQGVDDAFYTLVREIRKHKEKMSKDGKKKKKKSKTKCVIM
Briefly: HTRF resonance energy transfer assay, K-Ras G12V / SOS1 interaction. Type of test: biochemical. The conditions noted are these: HTRF assay of Example 5; read-out: IC50 against K-Ras G12V. The gist of the method:
as §1

Where only a bound is given, the exact number is not on record here.

T2 sequence (P01116 1-188 isoform P01116-2 G12D): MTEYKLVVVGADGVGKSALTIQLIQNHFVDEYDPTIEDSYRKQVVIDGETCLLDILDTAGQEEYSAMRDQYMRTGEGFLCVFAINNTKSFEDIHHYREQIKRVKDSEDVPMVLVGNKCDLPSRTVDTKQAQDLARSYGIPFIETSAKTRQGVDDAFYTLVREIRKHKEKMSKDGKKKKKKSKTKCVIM
T1 sequence (P01116 1-188 isoform P01116-2 G12S): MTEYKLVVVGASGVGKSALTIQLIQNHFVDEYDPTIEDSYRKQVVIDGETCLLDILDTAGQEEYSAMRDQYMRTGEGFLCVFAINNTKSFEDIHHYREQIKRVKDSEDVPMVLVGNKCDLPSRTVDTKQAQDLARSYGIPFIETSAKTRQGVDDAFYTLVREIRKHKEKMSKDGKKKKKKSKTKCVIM

In the case of `CC1Oc2c(Cl)c(-c3ccc(F)c4sc(N)c(C#N)c34)c(F)c3nc(OC[C@@]45CCCN4C[C@H](F)C5)nc(c23)N([C@@H]2CCOC2)C1C` (stereo partly drawn) [Compound 741, 2-amino-4-(8-chloro-10-fluoro-2-(((2R,7aS)-2-fluorotetrahydro-1H-pyrrolizin-7a(5H)-yl)methoxy)-5,6-dimethyl-4-((R)-tetrahydrofuran-3-yl)-5,6-dihydro-4H-[1,4]oxazepino[5,6,7-de]quinazolin-9-yl)-7-fluorobenzo[b]thiophene-3-carbonitrile], the half-maximal inhibitory concentration (IC50) – broadly, the concentration that gives 50% inhibition – at K-Ras G12S is below 0.1 µM; at K-Ras G12D it was below 0.1 µM; in the test on SW620 cells, below 5 µM; in the test on A549 cells, below 5 µM; at K-Ras WT, below 0.1 µM; on K-Ras G12V it was below 0.1 µM.
As for `N#Cc1c(N)sc2c(F)ccc(-c3c(Cl)c4c5c(nc(OC[C@@]67CCCN6C[C@H](F)C7)nc5c3F)N(C3CCC5(C3)CN(C(=O)C3CC3(F)F)C5)CCO4)c12` (stereo partly drawn) [Compound 746, 2-amino-4-(8-chloro-4-(2-(2,2-difluorocyclopropane-1-carbonyl)-2-azaspiro[3.4]octan-6-yl)-10-fluoro-2-(((2R,7aS)-2-fluorotetrahydro-1H-pyrrolizin-7a(5H)-yl)methoxy)-5,6-dihydro-4H-[1,4]oxazepino[5,6,7-de]quinazolin-9-yl)-7-fluorobenzo[b]thiophene-3-carbonitrile], the 50% inhibitory concentration (IC50) at K-Ras G12S is below 0.1 µM; at K-Ras G12D, below 0.1 µM; in the test on SW620 cells, below 5 µM; in the test with A549 cells it was below 5 µM; on K-Ras WT, below 0.1 µM; at K-Ras G12V, below 0.1 µM.
For `CC(=O)NC1CCC(N2CCOc3c(Cl)c(-c4ccc(F)c5sc(N)c(C#N)c45)c(F)c4nc(OC[C@@]56CCCN5C[C@H](F)C6)nc2c34)C1` (stereo partly drawn) [Compound 781, N-(3-(9-(2-amino-3-cyano-7-fluorobenzo[b]thiophen-4-yl)-8-chloro-10-fluoro-2-(((2R,7aS)-2-fluorotetrahydro-1H-pyrrolizin-7a(5H)-yl)methoxy)-5,6-dihydro-4H-[1,4]oxazepino[5,6,7-de]quinazolin-4-yl)cyclopentyl)acetamide], the IC50 was below 0.1 µM on K-Ras G12S; below 0.1 µM on K-Ras G12D; below 5 µM in the test on SW620 cells; below 5 µM with A549 cells; below 0.1 µM on K-Ras WT; below 0.1 µM at K-Ras G12V.
Take `N#Cc1c(N)sc2c(F)ccc(-c3c(Cl)c4c5c(nc(OC[C@@]67CCCN6C[C@H](F)C7)nc5c3F)N(C3CCOCC3)CCO4)c12` [Compound 813, 2-amino-4-(8-chloro-10-fluoro-2-(((2R,7aS)-2-fluorotetrahydro-1H-pyrrolizin-7a(5H)-yl)methoxy)-4-(tetrahydro-2H-pyran-4-yl)-5,6-dihydro-4H-[1,4]oxazepino[5,6,7-de]quinazolin-9-yl)-7-fluorobenzo[b]thiophene-3-carbonitrile]: the half-inhibitory concentration (IC50) on K-Ras G12S is below 0.1 µM; at K-Ras G12D, below 0.1 µM; with SW620 cells it was below 5 µM; with A549 cells, below 5 µM; on K-Ras WT, below 0.1 µM; on K-Ras G12V it was below 0.1 µM.
On to `N#Cc1c(N)sc2c(F)ccc(-c3c(Cl)c4c5c(nc(OC[C@@]67CCCN6C[C@H](F)C7)nc5c3F)N(C3CCC(NC=O)C3)CCO4)c12` (stereo partly drawn) [Compound 829, N-(3-(9-(2-amino-3-cyano-7-fluorobenzo[b]thiophen-4-yl)-8-chloro-10-fluoro-2-(((2R,7aS)-2—fluorotetrahydro-1H-pyrrolizin-7a(5H)-yl)methoxy)-5,6-dihydro-4H-[1,4]oxazepino[5,6,7-de]quinazolin-4-yl)cyclopentyl)formamide], for which the IC50 on K-Ras G12S is below 0.1 µM; on K-Ras G12D, below 0.1 µM; in the test with SW620 cells, below 5 µM; in the test with A549 cells, below 5 µM; at K-Ras WT, below 0.1 µM; on K-Ras G12V, below 0.1 µM.
As to `N#Cc1c(N)sc2c(F)ccc(-c3c(Cl)c4c5c(nc(OC[C@@]67CCCN6C[C@H](F)C7)nc5c3F)N(C3CC(NC=O)C3)CCO4)c12` (stereo partly drawn) [Compound 836, N-(3-(9-(2-amino-3-cyano-7-fluorobenzo[b]thiophen-4-yl)-8-chloro-10-fluoro-2-(((2R,7aS)-2-fluorotetrahydro-1H-pyrrolizin-7a(5H)-yl)methoxy)-5,6-dihydro-4H-[1,4]oxazepino[5,6,7-de]quinazolin-4-yl)cyclobutyl)formamide], the IC50 at K-Ras G12S is below 0.1 µM; at K-Ras G12D, below 0.1 µM; in the test on SW620 cells, below 5 µM; in the test with A549 cells it was below 5 µM; at K-Ras WT, below 0.1 µM; at K-Ras G12V it was below 0.1 µM.
Consider `N#CCCCN1CCOc2c(Cl)c(-c3ccc(F)c4sc(N)c(C#N)c34)c(F)c3nc(OC[C@@]45CCCN4C[C@H](F)C5)nc1c23` [Compound 837, 2-amino-4-(8-chloro-4-(3-cyanopropyl)-10-fluoro-2-(((2R,7aS)-2-fluorotetrahydro-1H-pyrrolizin-7a(5H)-yl)methoxy)-5,6-dihydro-4H-[1,4]oxazepino[5,6,7-de]quinazolin-9-yl)-7-fluorobenzo[b]thiophene-3-carbonitrile], for which the IC50 on K-Ras G12S is below 0.1 µM; at K-Ras G12D, below 0.1 µM; in the test with SW620 cells, below 5 µM; in the test on A549 cells, below 5 µM; at K-Ras WT it was below 0.1 µM; at K-Ras G12V, below 0.1 µM.
Regarding `N#Cc1c(N)sc2c(F)ccc(-c3c(Cl)c4c5c(nc(OC[C@@]67CCCN6C[C@H](F)C7)nc5c3F)N(C3CCCCC3O)CCO4)c12` (stereo partly drawn) [Compound 838, 2-amino-4-(8-chloro-10-fluoro-2-(((2R,7aS)-2-fluorotetrahydro-1H-pyrrolizin-7a(5H)-yl)methoxy)-4-(2-hydroxycyclohexyl)-5,6-dihydro-4H-[1,4]oxazepino[5,6,7-de]quinazolin-9-yl)-7-fluorobenzo[b]thiophene-3-carbonitrile], the IC50 on K-Ras G12S was below 0.1 µM; at K-Ras G12D, below 0.1 µM; with SW620 cells it was below 5 µM; in the test with A549 cells, below 5 µM; at K-Ras WT, below 0.1 µM; on K-Ras G12V it was below 0.1 µM.
Turning to `C[C@H](Oc1nc2c3c(c(Cl)c(-c4ccc(F)c5sc(N)c(C#N)c45)c(F)c3n1)OCCN2C1CCN(C(=O)C2CC2C#N)CC1)[C@@H]1CCCN1C` (stereo partly drawn) [Compound 839, 2-amino-4-(8-chloro-4-(1-(trans-2-cyanocyclopropane-1-carbonyl)piperidin-4-yl)-10-fluoro-2-((S)-1-((S)-1-methylpyrrolidin-2-yl)ethoxy)-5,6-dihydro-4H-[1,4]oxazepino[5,6,7-de]quinazolin-9-yl)-7-fluorobenzo[b]thiophene-3-carbonitrile], the IC50 is below 0.1 µM on K-Ras G12S; below 0.1 µM on K-Ras G12D; below 5 µM with SW620 cells; below 5 µM in the test on A549 cells; below 0.1 µM at K-Ras WT; below 0.1 µM at K-Ras G12V.
Take `CNC(=O)C1CCCC(N2CCOc3c(Cl)c(-c4ccc(F)c5sc(N)c(C#N)c45)c(F)c4nc(OC[C@@]56CCCN5C[C@H](F)C6)nc2c34)C1` (stereo partly drawn) [Compound 841, 3-(9-(2-amino-3-cyano-7-fluorobenzo[b]thiophen-4-yl)-8-chloro-10-fluoro-2-(((2R,7aS)-2-fluorotetrahydro-1H-pyrrolizin-7a(5H)-yl)methoxy)-5,6-dihydro-4H-[1,4]oxazepino[5,6,7-de]quinazolin-4-yl)-N-methylcyclohexane-1-carboxamide]: the IC50 at K-Ras G12S was below 0.1 µM; on K-Ras G12D it was below 0.1 µM; in the test with SW620 cells, below 5 µM; in the test with A549 cells, below 5 µM; on K-Ras WT, below 0.1 µM; at K-Ras G12V it was below 0.1 µM.
On to `CNC(=O)C1CC(N2CCOc3c(Cl)c(-c4ccc(F)c5sc(N)c(C#N)c45)c(F)c4nc(OC[C@@]56CCCN5C[C@H](F)C6)nc2c34)C1` (stereo partly drawn) [Compound 859, 3-(9-(2-amino-3-cyano-7-fluorobenzo[b]thiophen-4-yl)-8-chloro-10-fluoro-2-(((2R,7aS)-2-fluorotetrahydro-1H-pyrrolizin-7a(5H)-yl)methoxy)-5,6-dihydro-4H-[1,4]oxazepino[5,6,7-de]quinazolin-4-yl)-N-methylcyclobutane-1-carboxamide], for which the IC50 on K-Ras G12S was below 0.1 µM; on K-Ras G12D, below 0.1 µM; with SW620 cells, below 5 µM; with A549 cells, below 5 µM; on K-Ras WT it was below 0.1 µM; at K-Ras G12V, below 0.1 µM.
